From the kinase profiling compilation of Christmann-Franck et al. (2016)

Assays:
Test in all cases: KINOMEscan competition binding
Conditions in all cases: compound 1.0 µM
[1] = molecular target: MAP3K6 (human) (UniProt O95382)
[2] = molecular target: BMX (human) (UniProt P51813)
[3] = molecular target: STK25 (human) (UniProt O00506)
[4] = molecular target: EPHB3 (human) (UniProt P54753)
[5] = molecular target: CSNK1D (human) (UniProt P48730)
[6] = molecular target: ACVR2B (human) (UniProt Q13705)
[7] = molecular target: RPS6KA5 KD2 (human) (UniProt O75582)
[8] = molecular target: MAPK1 (human) (UniProt P28482)
[9] = molecular target: CDK18 (human) (UniProt Q07002)
[10] = molecular target: TLK2 (human) (UniProt Q86UE8)
[11] = molecular target: NTRK1 (human) (UniProt P04629)
[12] = molecular target: STK38L (human) (UniProt Q9Y2H1)
[13] = system: KIT (human), P10721 [L576P]
Sequence of KIT (human), P10721 [L576P] (P10721 whole entry L576P, looked up): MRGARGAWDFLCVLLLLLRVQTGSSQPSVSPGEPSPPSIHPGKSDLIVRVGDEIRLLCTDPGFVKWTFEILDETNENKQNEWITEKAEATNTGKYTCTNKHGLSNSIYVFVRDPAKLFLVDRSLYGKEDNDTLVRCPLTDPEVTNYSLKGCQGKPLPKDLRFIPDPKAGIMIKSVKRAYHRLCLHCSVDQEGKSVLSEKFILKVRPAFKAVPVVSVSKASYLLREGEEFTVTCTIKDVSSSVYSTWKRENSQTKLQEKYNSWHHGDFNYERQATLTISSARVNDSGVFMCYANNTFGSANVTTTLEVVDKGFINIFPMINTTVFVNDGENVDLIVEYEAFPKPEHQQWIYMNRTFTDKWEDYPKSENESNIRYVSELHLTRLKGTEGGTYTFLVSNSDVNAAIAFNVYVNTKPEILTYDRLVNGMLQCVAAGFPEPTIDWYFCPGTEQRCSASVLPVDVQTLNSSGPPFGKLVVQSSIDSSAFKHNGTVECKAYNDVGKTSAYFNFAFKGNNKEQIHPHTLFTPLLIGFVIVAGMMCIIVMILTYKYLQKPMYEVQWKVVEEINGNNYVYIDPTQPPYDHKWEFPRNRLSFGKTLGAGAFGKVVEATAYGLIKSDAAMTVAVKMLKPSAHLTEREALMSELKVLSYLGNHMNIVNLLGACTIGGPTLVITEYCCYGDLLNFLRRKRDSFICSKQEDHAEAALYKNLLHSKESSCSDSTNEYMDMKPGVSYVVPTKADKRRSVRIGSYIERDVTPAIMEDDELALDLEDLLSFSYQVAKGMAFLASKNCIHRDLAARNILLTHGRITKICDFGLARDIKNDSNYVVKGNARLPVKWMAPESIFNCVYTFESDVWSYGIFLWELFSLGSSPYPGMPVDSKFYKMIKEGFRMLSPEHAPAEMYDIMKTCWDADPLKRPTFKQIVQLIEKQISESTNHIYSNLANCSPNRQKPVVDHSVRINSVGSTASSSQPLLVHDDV

[14] = molecular target: CDK5 (human) (UniProt Q00535)
[15] = molecular target: DAPK3 (human) (UniProt O43293)
[16] = molecular target: RPS6KA4 KD2 (human) (UniProt O75676)
Sequence of RPS6KA4 KD2 (human) (O75676 whole entry, looked up): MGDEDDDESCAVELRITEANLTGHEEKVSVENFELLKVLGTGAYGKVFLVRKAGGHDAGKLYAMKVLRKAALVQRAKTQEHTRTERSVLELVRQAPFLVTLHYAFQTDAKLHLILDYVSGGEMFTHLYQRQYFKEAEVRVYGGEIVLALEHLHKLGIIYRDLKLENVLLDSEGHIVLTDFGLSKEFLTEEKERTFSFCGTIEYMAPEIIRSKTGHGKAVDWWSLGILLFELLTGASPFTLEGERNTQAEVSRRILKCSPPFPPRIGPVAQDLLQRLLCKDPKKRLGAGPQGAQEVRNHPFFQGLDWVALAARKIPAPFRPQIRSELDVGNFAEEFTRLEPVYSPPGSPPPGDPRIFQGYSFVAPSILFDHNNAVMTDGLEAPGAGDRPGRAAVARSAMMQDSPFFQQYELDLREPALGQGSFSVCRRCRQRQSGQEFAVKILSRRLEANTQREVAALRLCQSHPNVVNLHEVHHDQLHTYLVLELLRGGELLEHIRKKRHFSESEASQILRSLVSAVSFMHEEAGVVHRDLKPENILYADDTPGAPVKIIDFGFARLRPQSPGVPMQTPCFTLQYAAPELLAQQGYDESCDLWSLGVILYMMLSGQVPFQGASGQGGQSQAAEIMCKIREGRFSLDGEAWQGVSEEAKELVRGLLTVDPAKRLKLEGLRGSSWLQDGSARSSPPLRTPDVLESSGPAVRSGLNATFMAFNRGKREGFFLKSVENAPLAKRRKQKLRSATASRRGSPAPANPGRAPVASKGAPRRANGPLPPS

[17] = molecular target: PIP5K1A (human) (UniProt Q99755)
[18] = molecular target: CSNK2A2 (human) (UniProt P19784)
[19] = molecular target: RPS6KA4 KD1 (human) (UniProt O75676)
Sequence of RPS6KA4 KD1 (human) (O75676 whole entry, looked up): as above

[20] = molecular target: TYK2 JH1 catalytic (human) (UniProt P29597)
[21] = molecular target: TTK (human) (UniProt P33981)
[22] = molecular target: SRMS (human) (UniProt Q9H3Y6)
[23] = system: PIK3CA (human), P42336 [H1047L]
Sequence of PIK3CA (human), P42336 [H1047L] (P42336 whole entry H1047L, looked up): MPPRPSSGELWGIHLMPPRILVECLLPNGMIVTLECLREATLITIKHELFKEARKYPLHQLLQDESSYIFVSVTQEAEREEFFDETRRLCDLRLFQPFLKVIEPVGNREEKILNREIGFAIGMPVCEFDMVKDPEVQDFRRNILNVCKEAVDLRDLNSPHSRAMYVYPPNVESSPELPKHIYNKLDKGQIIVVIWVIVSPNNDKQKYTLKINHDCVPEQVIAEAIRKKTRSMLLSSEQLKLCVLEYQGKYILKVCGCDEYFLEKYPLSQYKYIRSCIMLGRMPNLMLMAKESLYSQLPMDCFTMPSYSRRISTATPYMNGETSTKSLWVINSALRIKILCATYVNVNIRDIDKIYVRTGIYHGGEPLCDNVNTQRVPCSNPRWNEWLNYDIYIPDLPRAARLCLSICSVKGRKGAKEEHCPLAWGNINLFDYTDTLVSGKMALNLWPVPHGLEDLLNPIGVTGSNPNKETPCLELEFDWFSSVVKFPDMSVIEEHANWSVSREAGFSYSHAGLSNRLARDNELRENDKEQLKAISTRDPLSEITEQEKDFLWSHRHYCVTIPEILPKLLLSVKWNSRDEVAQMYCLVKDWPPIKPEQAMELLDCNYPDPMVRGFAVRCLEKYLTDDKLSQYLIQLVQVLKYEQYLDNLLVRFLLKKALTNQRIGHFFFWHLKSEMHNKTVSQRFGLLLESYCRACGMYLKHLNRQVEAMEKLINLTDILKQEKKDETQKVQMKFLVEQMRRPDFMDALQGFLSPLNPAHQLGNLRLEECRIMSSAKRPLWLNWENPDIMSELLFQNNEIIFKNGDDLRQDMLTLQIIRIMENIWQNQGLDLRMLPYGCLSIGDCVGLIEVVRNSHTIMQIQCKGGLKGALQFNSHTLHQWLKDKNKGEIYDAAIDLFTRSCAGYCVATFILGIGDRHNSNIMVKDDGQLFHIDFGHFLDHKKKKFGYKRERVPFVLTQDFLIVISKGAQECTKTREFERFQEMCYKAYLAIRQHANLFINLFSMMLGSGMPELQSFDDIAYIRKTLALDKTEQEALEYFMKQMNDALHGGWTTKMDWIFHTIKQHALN

[24] = system: EGFR (human), P00533 [T790M/L858R]
[25] = molecular target: CLK1 (human) (UniProt P49759)
[26] = molecular target: RET (human) (UniProt P07949)
Sequence of RET (human) (P07949 whole entry, looked up): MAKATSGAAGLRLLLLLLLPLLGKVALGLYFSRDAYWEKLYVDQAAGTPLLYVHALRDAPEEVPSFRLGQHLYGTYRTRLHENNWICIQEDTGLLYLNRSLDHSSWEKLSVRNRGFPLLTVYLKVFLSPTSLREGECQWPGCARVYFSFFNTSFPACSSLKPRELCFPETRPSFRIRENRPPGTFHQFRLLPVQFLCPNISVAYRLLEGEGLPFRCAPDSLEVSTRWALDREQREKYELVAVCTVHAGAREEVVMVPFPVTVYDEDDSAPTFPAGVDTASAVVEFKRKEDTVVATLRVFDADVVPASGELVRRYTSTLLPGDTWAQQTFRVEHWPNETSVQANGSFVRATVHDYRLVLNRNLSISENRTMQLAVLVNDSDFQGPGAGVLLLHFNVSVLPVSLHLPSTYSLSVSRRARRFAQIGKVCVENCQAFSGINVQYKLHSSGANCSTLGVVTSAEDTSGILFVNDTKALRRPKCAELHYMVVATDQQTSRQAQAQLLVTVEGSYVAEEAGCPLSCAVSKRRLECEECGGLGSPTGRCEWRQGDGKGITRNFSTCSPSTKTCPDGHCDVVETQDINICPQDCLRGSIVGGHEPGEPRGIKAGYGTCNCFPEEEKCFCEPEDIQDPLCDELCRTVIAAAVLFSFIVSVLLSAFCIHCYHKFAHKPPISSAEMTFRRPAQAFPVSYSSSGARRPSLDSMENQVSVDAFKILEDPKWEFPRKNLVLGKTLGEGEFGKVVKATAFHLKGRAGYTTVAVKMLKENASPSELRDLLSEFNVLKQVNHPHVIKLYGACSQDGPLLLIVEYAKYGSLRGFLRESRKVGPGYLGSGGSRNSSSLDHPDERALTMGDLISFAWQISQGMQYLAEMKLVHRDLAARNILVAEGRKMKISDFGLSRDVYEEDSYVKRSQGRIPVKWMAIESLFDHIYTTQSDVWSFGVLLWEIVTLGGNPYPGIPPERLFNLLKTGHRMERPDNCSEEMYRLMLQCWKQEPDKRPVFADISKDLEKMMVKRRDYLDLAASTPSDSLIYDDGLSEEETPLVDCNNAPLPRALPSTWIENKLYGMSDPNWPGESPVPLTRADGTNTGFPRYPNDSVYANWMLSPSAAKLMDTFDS

[27] = molecular target: CSNK1A1L (human) (UniProt Q8N752)
Sequence of CSNK1A1L (human) (Q8N752 whole entry, looked up): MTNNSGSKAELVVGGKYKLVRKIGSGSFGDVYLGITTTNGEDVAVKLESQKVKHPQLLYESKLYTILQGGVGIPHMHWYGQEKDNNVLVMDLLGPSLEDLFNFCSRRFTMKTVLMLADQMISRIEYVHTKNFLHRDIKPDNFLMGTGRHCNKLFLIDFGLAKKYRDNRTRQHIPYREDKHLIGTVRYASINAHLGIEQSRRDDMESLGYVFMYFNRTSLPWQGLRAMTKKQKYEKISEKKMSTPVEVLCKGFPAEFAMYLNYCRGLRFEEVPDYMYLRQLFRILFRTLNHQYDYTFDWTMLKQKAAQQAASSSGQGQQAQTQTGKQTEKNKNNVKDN

[28] = molecular target: LTK (human) (UniProt P29376)
[29] = molecular target: AAK1 (human) (UniProt Q2M2I8)
[30] = molecular target: SBK1 (human) (UniProt Q52WX2)
[31] = system: KIT (human), P10721 [V559D]
[32] = molecular target: CDK8 (human) (UniProt P49336)
[33] = molecular target: IRAK3 (human) (UniProt Q9Y616)
[34] = molecular target: ROS1 (human) (UniProt P08922)
[35] = molecular target: ANKK1 (human) (UniProt Q8NFD2)
Sequence of ANKK1 (human) (Q8NFD2 whole entry, looked up): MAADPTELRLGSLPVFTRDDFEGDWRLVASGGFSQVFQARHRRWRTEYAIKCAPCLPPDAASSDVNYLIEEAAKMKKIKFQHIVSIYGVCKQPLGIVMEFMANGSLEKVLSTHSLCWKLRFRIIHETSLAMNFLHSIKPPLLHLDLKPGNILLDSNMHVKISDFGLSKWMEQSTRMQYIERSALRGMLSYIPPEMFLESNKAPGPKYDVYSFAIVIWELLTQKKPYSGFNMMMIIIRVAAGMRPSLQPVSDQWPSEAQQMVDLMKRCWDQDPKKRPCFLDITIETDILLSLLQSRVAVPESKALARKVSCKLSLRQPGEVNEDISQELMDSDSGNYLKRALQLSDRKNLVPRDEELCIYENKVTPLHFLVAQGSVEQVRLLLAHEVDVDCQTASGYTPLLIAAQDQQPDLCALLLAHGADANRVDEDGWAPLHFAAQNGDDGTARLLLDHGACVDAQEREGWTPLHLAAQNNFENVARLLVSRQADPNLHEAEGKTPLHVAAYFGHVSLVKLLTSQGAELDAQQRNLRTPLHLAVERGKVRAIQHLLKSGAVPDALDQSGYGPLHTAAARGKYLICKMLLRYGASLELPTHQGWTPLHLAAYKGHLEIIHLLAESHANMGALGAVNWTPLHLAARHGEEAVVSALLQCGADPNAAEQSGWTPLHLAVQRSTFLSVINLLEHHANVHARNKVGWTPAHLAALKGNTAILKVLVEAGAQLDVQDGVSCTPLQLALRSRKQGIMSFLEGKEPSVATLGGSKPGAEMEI

[36] = molecular target: TGFBR2 (human) (UniProt P37173)
[37] = molecular target: PIM2 (human) (UniProt Q9P1W9)
[38] = molecular target: PAK2 (human) (UniProt Q13177)
[39] = molecular target: STK32C (human) (UniProt Q86UX6)
[40] = molecular target: DDR1 (human) (UniProt Q08345)
[41] = molecular target: WEE1 (human) (UniProt P30291)
[42] = molecular target: FES (human) (UniProt P07332)

CN(C)C/C=C/C(=O)Nc1cccc(C(=O)Nc2ccc(Nc3nccc(-c4cccnc4)n3)cc2)c1
kinase still bound, per cent of control [1]: 100% | kinase still bound, per cent of control [2]: 70% | kinase still bound, per cent of control [3]: 58% | kinase still bound, per cent of control [4]: 96% | kinase still bound, per cent of control [5]: 5.6% | kinase still bound, per cent of control [6]: 56% | kinase still bound, per cent of control [7]: 100% | kinase still bound, per cent of control [8]: 100% | kinase still bound, per cent of control [9]: 100% | kinase still bound, per cent of control [10]: 92% | kinase still bound, per cent of control [11]: 76% | kinase still bound, per cent of control [12]: 99% | kinase still bound, per cent of control [13]: 2.2% | kinase still bound, per cent of control [14]: 89% | kinase still bound, per cent of control [15]: 65% | kinase still bound, per cent of control [16]: 65% | kinase still bound, per cent of control [17]: 18% | kinase still bound, per cent of control [18]: 13% | kinase still bound, per cent of control [19]: 82% | kinase still bound, per cent of control [20]: 16% | kinase still bound, per cent of control [21]: 97% | kinase still bound, per cent of control [22]: 100% | kinase still bound, per cent of control [23]: 100% | kinase still bound, per cent of control [24]: 100% | kinase still bound, per cent of control [25]: 12% | kinase still bound, per cent of control [26]: 100% | kinase still bound, per cent of control [27]: 37% | kinase still bound, per cent of control [28]: 100% | kinase still bound, per cent of control [29]: 18% | kinase still bound, per cent of control [30]: 66% | kinase still bound, per cent of control [31]: 1% | kinase still bound, per cent of control [32]: 68% | kinase still bound, per cent of control [33]: 20% | kinase still bound, per cent of control [34]: 100% | kinase still bound, per cent of control [35]: 50% | kinase still bound, per cent of control [36]: 76% | kinase still bound, per cent of control [37]: 100% | kinase still bound, per cent of control [38]: 87% | kinase still bound, per cent of control [39]: 98% | kinase still bound, per cent of control [40]: 100% | kinase still bound, per cent of control [41]: 84% | kinase still bound, per cent of control [42]: 100%
